# Results reported in patent US20230277698A1, “SILICON-CONTAINING LIGAND COMPOUNDS” (Technische Universität München, priority 2020, published 2023).
# Biological target: human serum albumin (HSA) (Homo sapiens, UniProt P02768)
# Test: HSA binding by radio inversed affinity chromatography (RIAC)
# Format: in vitro ADME
# Details: 177Lu-labelled; Superdex 75 Increase 10/300 GL, 700 μM HSA in PBS, 0.8 mL/min
# Procedure: A gel filtration column Superdex 75 Increase 10/300 GL (GE Healthcare, Uppsala, Sweden) was beforehand calibrated following the producer's recommendations with a commercially available gel filtration calibration kit (GE Healthcare, Buckinghamshire, UK) comprising conalbumin (MW: 75 kDa), ovalbumin (44 kDa), carbonic anhydrase (29 kDa), ribonuclease A (13.7 kDa) and aprotinin (6.5 kDa) as reference proteins of known molecular weight. RIAC experiments were conducted using a constant flow rate of 0.8 mL/min at rt. A solution of HSA in PBS at physiological concentration (700 μM) was used as the mobile phase. PSMA ligands were labelled as described with molar activities of 10-20 GBq/μmol. Probes of 1.0 MBq of the radioligand were injected directly from the labelling solution. HSA binding was expressed as an apparent molecular weight MW calculated from the retention time of the radioligand using the determined calibration curve.
# The following table summarizes the underlying data. MW: molecular weight. tR: experimentally determined retention time. V: elution volume. Kav: partition coefficient.
# RIAC, in an inversed way, comprises ligand samples (radiolabeled PSMA ligands) and a protein (HSA) containing mobile phase. Ligand-specific retention is caused by interaction of the ligand probe and HSA in the mobile phase. Unbound species, due to a molecular weight beneath the molecular cut off of the gel filtration column, are maximally retained while bound species are eluted in accordance to the higher molecular weight of the ligand-HSA-complex (MWHSA: 66.47 kDa). Experiments show a single radiopeak indicating a dynamic process of formation and dissociation of the ligand-HSA-complex throughout the passage through the column bed. Accordingly, the absolute retention time is the result of the ligand's mean time of abidance at HSA which is directly defined by the ligand's binding kinetics and affinity toward HSA. For evaluation, experimentally determined retention times tR are first converted into elution volumes Ve by multiplying with the flow rate and thereafter converted into partition coefficients Kav following the equation
# where V0 is the column void volume (8.027 mL) and Vc is the geometric column volume (24 mL). Using the equation given by the trend line plot of the column calibration
# the apparent molecular weight MW is calculated as
# FIG. 7 and the table below show the results HSA-binding of lutetium-complexed PSMA-ligands and reference compounds determined by RIAC on a Superdex 75 Increase 10/300 GL column 700 μM HSA in PBS as solvent using a constant flow rate of 0.8 mL/min (plotted data, extracted from FIG. 8).
# FIG. 8 illustrates the determination of HSA binding via radio inverse affinity chromatography (RIAC). Correlation of apparent molecular weight (MW) in Dalton (Da) and retention time of ^177Lu-labeled samples, determined on a Superdex 75 Increase 10/300 GL with 700 μM HSA in PBS as solvent using a constant flow rate of 0.8 mL/min.
# human serum albumin (HSA), sequence (P02768 25-609): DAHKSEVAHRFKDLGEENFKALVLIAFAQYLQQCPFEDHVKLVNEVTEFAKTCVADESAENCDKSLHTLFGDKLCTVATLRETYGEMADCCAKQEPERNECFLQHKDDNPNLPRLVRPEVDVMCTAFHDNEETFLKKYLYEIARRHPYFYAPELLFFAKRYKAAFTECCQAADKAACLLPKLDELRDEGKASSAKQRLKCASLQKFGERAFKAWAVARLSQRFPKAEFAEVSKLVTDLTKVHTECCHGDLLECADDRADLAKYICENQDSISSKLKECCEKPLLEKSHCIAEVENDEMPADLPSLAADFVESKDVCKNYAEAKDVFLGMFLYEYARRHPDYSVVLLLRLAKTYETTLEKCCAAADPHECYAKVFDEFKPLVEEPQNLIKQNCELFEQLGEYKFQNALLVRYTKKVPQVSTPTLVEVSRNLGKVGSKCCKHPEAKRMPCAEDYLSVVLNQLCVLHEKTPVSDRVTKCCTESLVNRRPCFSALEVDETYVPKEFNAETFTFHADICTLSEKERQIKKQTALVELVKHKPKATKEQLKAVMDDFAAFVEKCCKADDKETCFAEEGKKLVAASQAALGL
row,SMILES,HSA-binding RIAC (apparent molecular weight) [kDa]
1,CC(C)(C)[Si](O)(c1ccc(C(=O)NC[C@@H](NC(=O)CC[C@@H](C(=O)O)N2CCN(CC(=O)O)CCN(CC(=O)O)CCN(CC(=O)O)CC2)C(=O)N[C@H](CCCCNC(=O)CCC(=O)NCCC[C@@H](NC(=O)CC[C@H](NC(=O)N[C@@H](CCC(=O)O)C(=O)O)C(=O)O)C(=O)O)C(=O)O)cc1)C(C)(C)C [7.3-SiOH],10.1
2,CC(C)(C)[Si](O)(c1ccc(C(=O)NC[C@@H](NC(=O)CC[C@@H](C(=O)O)N2CCN(CC(=O)O)CCN(CC(=O)O)CCN(CC(=O)O)CC2)C(=O)N[C@H](CO)C(=O)NCCC(=O)NCCC(=O)NCCC[C@@H](NC(=O)CC[C@H](NC(=O)N[C@@H](CCC(=O)O)C(=O)O)C(=O)O)C(=O)O)cc1)C(C)(C)C [C007-SiOH],8.0
3,CC(C)(C)[Si](O)(c1ccc(C(=O)NC[C@@H](NC(=O)CC[C@@H](C(=O)O)N2CCN(CC(=O)O)CCN(CC(=O)O)CCN(CC(=O)O)CC2)C(=O)NCC(=O)N[C@@H](CCCCNC(=O)CCC(=O)NCCC[C@@H](NC(=O)CC[C@H](NC(=O)N[C@@H](CCC(=O)O)C(=O)O)C(=O)O)C(=O)O)C(=O)O)cc1)C(C)(C)C [E102-SiOH],9.3
4,CC(C)(C)[Si](O)(c1ccc(C(=O)NC[C@@H](NC(=O)CCCCCNC(=O)CCCNC(=O)CC[C@@H](NC(=O)CCC(NC(=O)N[C@@H](CCC(=O)O)C(=O)O)C(=O)O)C(=O)O)C(=O)NCC(=O)N[C@@H](CCCCNC(=O)CC[C@@H](C(=O)O)N2CCN(CC(=O)O)CCN(CC(=O)O)CCN(CC(=O)O)CC2)C(=O)O)cc1)C(C)(C)C (stereo partly drawn) [E104-SiOH],7.8
5,CC(C)(C)[Si](O)(c1ccc(C(=O)N[C@H](CCC(=O)NC[C@@H](NC(=O)CC[C@@H](C(=O)O)N2CCN(CC(=O)O)CCN(CC(=O)O)CCN(CC(=O)O)CC2)C(=O)NCCCCCC(=O)NCCC[C@@H](NC(=O)CC[C@H](NC(=O)N[C@@H](CCC(=O)O)C(=O)O)C(=O)O)C(=O)O)C(=O)O)cc1)C(C)(C)C [P105-SiOH],10.4
6,CC(C)(C)[Si](O)(c1ccc(C[N+](C)(C)CC(=O)NCCC[C@@H](NC(=O)CC[C@@H](C(=O)O)N2CCN(CC(=O)O)CCN(CC(=O)O)CCN(CC(=O)O)CC2)C(=O)NCCCCCC(=O)NCCC[C@@H](NC(=O)CC[C@H](NC(=O)N[C@@H](CCC(=O)O)C(=O)O)C(=O)O)C(=O)O)cc1)C(C)(C)C [P110-SiOH],5.2
7,"O=C(O)CC[C@H](NC(=O)N[C@@H](CCCCNC(=O)[C@H](Cc1ccc2ccccc2c1)NC(=O)[C@H]1CC[C@H](CNC(=O)CN2CCN(CC(=O)O)CCN(CC(=O)O)CCN(CC(=O)O)CC2)CC1)C(=O)O)C(=O)O [PSMA-617, reference compound]",13.7
8,"CC(C)(C)[Si](F)(c1ccc(C(=O)NC[C@@H](NC(=O)CC[C@@H](C(=O)O)N2CCN(CC(=O)O)CCN(CC(=O)O)CCN(CC(=O)O)CC2)C(=O)N[C@H](CCCCNC(=O)CCC(=O)NCCC[C@@H](NC(=O)CC[C@H](NC(=O)N[C@@H](CCC(=O)O)C(=O)O)C(=O)O)C(=O)O)C(=O)O)cc1)C(C)(C)C [rhPSMA-7.3, reference compound]",30.2
9,"CC(C)(C)[Si](F)(c1ccc(C(=O)NC[C@@H](NC(=O)CN2CCN(CC(=O)O)CCN(CC(=O)O)CCN(CC(=O)O)CC2)C(=O)N[C@H](CCCCNC(=O)CCC(=O)NCCC[C@@H](NC(=O)CC[C@H](NC(=O)N[C@@H](CCC(=O)O)C(=O)O)C(=O)O)C(=O)O)C(=O)O)cc1)C(C)(C)C [rhPSMA-10, reference compound]",25.4
